The values that follow come from patent publication US8227492B2, “Sulfoxamine derivatives as factor Xa inhibitors” (Cadila Healthcare Limited, priority 2007, dated 2012).

In one assay the target is Factor Xa (Homo sapiens, UniProt P00742). The assay can be described thus: In vitro Factor Xa inhibition, chromogenic assay. Format: biochemical. The following applies: 0.1 μM compound; for inhibition at 0.1 µM: read-out: % Factor Xa inhibition at 0.1 μM using chromogenic assay. As to the method: (§1) In vitro Factor Xa inhibitory activities were determined as per standard protocols and the results of representative compounds are provided in tables 1 and 2 below as proof of the efficacies of the novel class of compounds disclosed above.
Sequence of Factor Xa (P00742 235-488 limits assumed): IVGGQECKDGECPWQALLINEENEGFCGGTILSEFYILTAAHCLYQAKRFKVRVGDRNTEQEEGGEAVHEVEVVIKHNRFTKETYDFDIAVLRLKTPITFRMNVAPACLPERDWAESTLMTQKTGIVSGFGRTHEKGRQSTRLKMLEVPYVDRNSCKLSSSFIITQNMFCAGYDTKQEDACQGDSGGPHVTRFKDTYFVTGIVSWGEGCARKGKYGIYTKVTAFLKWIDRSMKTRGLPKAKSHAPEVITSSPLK
Sequence of Factor Xa (P00742 41-179 partner limits assumed): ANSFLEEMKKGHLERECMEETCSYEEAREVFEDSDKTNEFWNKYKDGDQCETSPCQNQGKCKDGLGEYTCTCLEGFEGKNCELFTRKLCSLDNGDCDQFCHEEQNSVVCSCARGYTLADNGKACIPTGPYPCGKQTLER

The next assay has as its system human plasma. The experiment in a line: Prothrombin time doubling concentration (PTCT2) using human plasma. Format: biochemical. The procedure: as §1

A word on the inhibition: it is the drop in the measured response relative to a control, in per cent. Consider `CS(=N)(=O)c1ccc(C(=O)Nc2ccc(Cl)cc2C(=O)Nc2ccc(Cl)cn2)cc1` (stereo not drawn) [Example 1, S-[4-(N-{2-[N-(5-chloro(2-pyridyl))carbamoyl]-4-chlorophenyl}carbamoyl)phenyl]-S-methyl Sulfoximide], for which the inhibition at 0.1 µM on Factor Xa came to 75%.
`CS(=N)(=O)c1ccccc1-c1ccc(C(=O)Nc2ccc(Cl)cc2C(=O)Nc2ccc(Cl)cn2)cc1` (stereo not drawn) [Example 4, S-(2-[4-(N-{2-[N-(5-chloro-2-pyridyl)carbamoyl]-4-chlorophenyl}carbamoyl)phenyl]-phenyl)-S-methyl sulfoximide]: the inhibition at 0.1 µM on Factor Xa was 93%. Also, in the assay on human plasma, the “PTCT2 (Conc. required to double the prothrombin time using human plasma)” value (“PTCT2” below) stood at 4.1 µM.
On the same counts, the results for `COc1cc(Cl)cc(C(=O)Nc2ccc(Cl)cn2)c1NC(=O)c1ccc(-c2ccccc2S(C)(=N)=O)cc1` (stereo not drawn) [Example 5, S-(2-[4-(N-{2-[N-(5-chloro-2-pyridyl)carbamoyl]-4-chloro-6-methoxyphenyl}carbamoyl)phenyl]-phenyl)-S-methyl Sulfoximide] are 95% and 0.69 µM.
Consider `CS(=O)(=O)N=S(C)(=O)c1ccccc1-c1ccc(C(=O)Nc2ccc(Cl)cc2C(=O)Nc2ccc(Cl)cn2)cc1` (stereo not drawn) [Example 14, S-(2-[4-(N-{2-[N-(5-chloro-2-pyridyl)carbamoyl]-4-chlorophenyl}carbamoyl)phenyl]-phenyl)-S-methyl-N-methanesulfonyl sulfoximide], for which the inhibition at 0.1 µM on Factor Xa was 84%.
As to `CS(=O)(=NC(=O)c1ccncc1)c1ccccc1-c1ccc(C(=O)Nc2ccc(Cl)cc2C(=O)Nc2ccc(Cl)cn2)cc1` (stereo not drawn) [Example 24, S-(2-[4-(N-{2-[N-(5-chloro-2-pyridyl)carbamoyl]-4-chlorophenyl}carbamoyl)phenyl]-phenyl)-S-methyl-N-(4-pyridylcarbonyl)sulfoximide], the inhibition at 0.1 µM at Factor Xa came out at 85%.
Regarding `CS(=O)(=NC(=O)C1CCNCC1)c1ccccc1-c1ccc(C(=O)Nc2ccc(Cl)cc2C(=O)Nc2ccc(Cl)cn2)cc1` (stereo not drawn) [Example 26, S-(2-[4-(N-{2-[N-(5-chloro-2-pyridyl)carbamoyl]-4-chlorophenyl}carbamoyl)phenyl]-phenyl)-S-methyl-N-(4-piperidinylcarbonyl)sulfoximide], the inhibition at 0.1 µM on Factor Xa stood at 69%.
Same read-out and setting: as for `CCN1CCC(C(=O)N=S(C)(=O)c2ccccc2-c2ccc(C(=O)Nc3ccc(Cl)cc3C(=O)Nc3ccc(Cl)cn3)cc2)CC1` (stereo not drawn) [Example 28, S-(2-[4-(N-{2-[N-(5-chloro-2-pyridyl)carbamoyl]-4-chlorophenyl}carbamoyl)phenyl]-phenyl)-S-methyl-N-(1-ethyl-piperidine-4-carbonyl)sulfoximide], the figure is 82%.
Turning to `COc1ccc(NC(=O)c2ccc(S(C)(=O)=NC(=O)CN(C)C)cc2)c(C(=O)Nc2ccc(Cl)cn2)c1` (stereo not drawn) [Example 40, S-[4-(N-{2-[N-(5-chloro(2-pyridyl))carbamoyl]-4-methoxyphenyl}carbamoyl)phenyl]-S-methyl-N-(2-dimethylamino-acetyl)sulfoximide], the inhibition at 0.1 µM on Factor Xa stood at 56%. Further, the “PTCT2” value in the assay with human plasma was determined as 1.2 µM.
On the same counts, the results for `CN(C)CC(=O)N=S(C)(=O)c1ccccc1-c1ccc(C(=O)Nc2ccc(Cl)cc2C(=O)Nc2ccc(Cl)cn2)cc1` (stereo not drawn) [Example 41, S-(2-[4-(N-{2-[N-(5-chloro-2-pyridyl)carbamoyl]-4-chlorophenyl}carbamoyl)phenyl]-phenyl)-S-methyl-N-(2-dimethylamino-acetyl)sulfoximide] are 95% and 1.9 µM.
The like results for `CCN(CC)CC(=O)N=S(C)(=O)c1ccc(C(=O)Nc2ccc(Cl)cc2C(=O)Nc2ccc(Cl)cn2)cc1` (stereo not drawn) [Example 42, S-[4-(N-{2-[N-(5-chloro(2-pyridyl))carbamoyl]-4-chlorophenyl}carbamoyl)phenyl]-S-methyl-N-(2-diethylamino-acetyl)sulfoximide] were, in that order, 70% and 0.7 µM.
As for `CCN(CC)CC(=O)N=S(C)(=O)c1ccccc1-c1ccc(C(=O)Nc2ccc(Cl)cc2C(=O)Nc2ccc(Cl)cn2)cc1` (stereo not drawn) [Example 43, S-(2-[4-(N-{2-[N-(5-chloro-2-pyridyl)carbamoyl]-4-chlorophenyl}carbamoyl)phenyl]-phenyl)-S-methyl-N-(2-diethylamino-acetyl)sulfoximide], at Factor Xa, the inhibition at 0.1 µM is 79%.
Regarding `CS(=O)(=NC(=O)CN1CCCC1)c1ccc(C(=O)Nc2ccc(Cl)cc2C(=O)Nc2ccc(Cl)cn2)cc1` (stereo not drawn) [Example 50, S-[4-(N-{2-[N-(5-chloro(2-pyridyl))carbamoyl]-4-chlorophenyl}carbamoyl)phenyl]-S-methyl-N-[(2-pyrrolidin-1-yl)-acetyl]sulfoximide], the inhibition at 0.1 µM on Factor Xa is 64%. For the same molecule, the “PTCT2” value in the assay with human plasma stood at 0.68 µM.
On to `CS(=O)(=NC(=O)CN1CCCCC1)c1ccc(C(=O)Nc2ccc(Cl)cc2C(=O)Nc2ccc(Cl)cn2)cc1` (stereo not drawn) [Example 52, S-[4-(N-{2-[N-(5-chloro(2-pyridyl))carbamoyl]-4-chlorophenyl}carbamoyl)phenyl]-S-methyl-N-[(2-piperidin-1-yl)-acetyl]sulfoximide], for which the inhibition at 0.1 µM on Factor Xa was determined as 60%.
Same read-out and setting: as for `CS(=O)(=NC(=O)CN1CCCCC1)c1ccccc1-c1ccc(C(=O)Nc2ccc(Cl)cc2C(=O)Nc2ccc(Cl)cn2)cc1` (stereo not drawn) [Example 53, S-(2-[4-(N-{2-[N-(5-chloro-2-pyridyl)carbamoyl]-4-chlorophenyl}carbamoyl)phenyl]-phenyl)-S-methyl-N-[(2-piperidin-1-yl)-acetyl]sulfoximide], the figure is 79%.
For the molecule `CCN(CC)CCN=S(C)(=O)c1ccc(C(=O)Nc2ccc(Cl)cc2C(=O)Nc2ccc(Cl)cn2)cc1` (stereo not drawn) [Example 74, S-[4-(N-{2-[N-(5-chloro(2-pyridyl))carbamoyl]-4-chlorophenyl}carbamoyl)phenyl]-S-methyl-N-(2-(diethylamino)ethyl)sulfoximide], on Factor Xa, the inhibition at 0.1 µM came to 77%. In the assay with human plasma, the “PTCT2” value turned out to be 1.23 µM.
Turning to `CS(=O)(=NCCN1CCCC1)c1ccc(C(=O)Nc2ccc(Cl)cc2C(=O)Nc2ccc(Cl)cn2)cc1` (stereo not drawn) [Example 75, S-[4-(N-{2-[N-(5-chloro(2-pyridyl))carbamoyl]-4-chlorophenyl}carbamoyl)phenyl]-S-methyl-N-(2-(pyrrolidin-1-yl)ethyl)sulfoximide], the inhibition at 0.1 µM at Factor Xa was 74%. The “PTCT2” value in the assay on human plasma is 0.98 µM.
On the same counts, the results for `CN(C)CCN=S(C)(=O)c1ccc(C(=O)Nc2ccc(Cl)cc2C(=O)Nc2ccc(Cl)cn2)cc1` (stereo not drawn) [Example 76, S-[4-(N-{2-[N-(5-chloro(2-pyridyl))carbamoyl]-4-chlorophenyl}carbamoyl)phenyl]-S-methyl-N-[2-dimethylamino-ethyl]sulfoximide] are 66% and 1.14 µM.
Take “S-(2-[4-(N-{2-[N-(5-chloro-2-pyridyl)carbamoyl]-4-chlorophenyl}carbamoyl)phenyl]-phenyl)-S-methyl-N-[2-(4-aminopiperidinyl)-acetyl]sulfoximide [Example 56]”: at Factor Xa, the “% Factor Xa inhibition at 0.1 μM using chromogenic assay” value was found to be 81%.
